Reference: ChEMBL document CHEMBL5120798, “Design and synthesis of an N-benzyl 5-(4-sulfamoylbenzylidene-2-thioxothiazolidin-4-one scaffold as a novel NLRP3 inflammasome inhibitor” (Bioorg Med Chem Lett, 2022)
The source made the active and inactive calls. No cut-off for these calls is given here.

What was measured:
Type in all cases: cell-based
[1] = target: NACHT, LRR and PYD domains-containing protein 3 (Mus musculus) (UniProt Q8R4B8); assay: Inhibition of NLRP3 inflammasome assembly in LPS/nigericin stimulated mouse BMDM cells assessed as reduction in NLRP3 specks; details: concentration not given here
Chain of NACHT, LRR and PYD domains-containing protein 3 (Mus musculus) (Q8R4B8 whole entry, the tested form may be a part): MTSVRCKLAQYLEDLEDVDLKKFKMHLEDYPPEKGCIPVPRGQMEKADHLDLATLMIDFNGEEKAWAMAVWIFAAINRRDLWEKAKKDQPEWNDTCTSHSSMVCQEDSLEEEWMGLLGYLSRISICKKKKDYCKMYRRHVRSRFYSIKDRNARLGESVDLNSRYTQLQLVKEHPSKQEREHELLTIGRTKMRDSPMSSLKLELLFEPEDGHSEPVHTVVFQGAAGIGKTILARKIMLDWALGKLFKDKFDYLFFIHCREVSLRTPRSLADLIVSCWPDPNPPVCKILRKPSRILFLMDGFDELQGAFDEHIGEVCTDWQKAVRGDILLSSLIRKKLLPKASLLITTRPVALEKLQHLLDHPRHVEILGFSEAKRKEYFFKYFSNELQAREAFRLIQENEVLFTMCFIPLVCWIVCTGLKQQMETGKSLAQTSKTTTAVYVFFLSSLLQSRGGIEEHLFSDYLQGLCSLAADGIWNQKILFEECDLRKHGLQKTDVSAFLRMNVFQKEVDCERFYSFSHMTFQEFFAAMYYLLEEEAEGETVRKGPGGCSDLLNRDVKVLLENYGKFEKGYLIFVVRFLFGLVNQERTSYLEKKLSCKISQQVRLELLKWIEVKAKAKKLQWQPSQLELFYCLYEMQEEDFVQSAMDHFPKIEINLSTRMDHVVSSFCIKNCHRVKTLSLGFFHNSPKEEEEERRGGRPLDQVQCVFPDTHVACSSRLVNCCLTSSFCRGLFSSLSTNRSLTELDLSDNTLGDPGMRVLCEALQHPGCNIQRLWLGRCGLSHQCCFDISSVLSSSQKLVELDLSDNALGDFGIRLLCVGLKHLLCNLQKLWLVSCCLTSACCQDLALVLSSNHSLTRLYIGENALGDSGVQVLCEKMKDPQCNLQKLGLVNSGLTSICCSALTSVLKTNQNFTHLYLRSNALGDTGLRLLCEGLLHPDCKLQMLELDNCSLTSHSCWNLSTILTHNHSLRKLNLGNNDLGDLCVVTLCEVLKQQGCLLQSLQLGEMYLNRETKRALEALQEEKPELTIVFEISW

[2] = target: NACHT, LRR and PYD domains-containing protein 3 (Mus musculus) (UniProt Q8R4B8); assay: Inhibition of NLRP3 inflammasome activation in LPS-primed mouse BMDM cells assessed as reduction in LPS/ATP induced cleaved caspase 1 level in supernatant preincubated for 30 mins followed by LPS addition for 3 hrs prior to ATP addition for 30 mins by Western blot analysis; details: dose 4-10 µM, time 4.0 hrs, DDE = dose-dependent effect
[3] = target: NACHT, LRR and PYD domains-containing protein 3 (Homo sapiens) (UniProt Q96P20); assay: Inhibition of NLRP3 inflammasome assembly in human THP-1 cells assessed as reduction in ASC oligomers formation
Chain of NACHT, LRR and PYD domains-containing protein 3 (Homo sapiens) (Q96P20 whole entry, the tested form may be a part): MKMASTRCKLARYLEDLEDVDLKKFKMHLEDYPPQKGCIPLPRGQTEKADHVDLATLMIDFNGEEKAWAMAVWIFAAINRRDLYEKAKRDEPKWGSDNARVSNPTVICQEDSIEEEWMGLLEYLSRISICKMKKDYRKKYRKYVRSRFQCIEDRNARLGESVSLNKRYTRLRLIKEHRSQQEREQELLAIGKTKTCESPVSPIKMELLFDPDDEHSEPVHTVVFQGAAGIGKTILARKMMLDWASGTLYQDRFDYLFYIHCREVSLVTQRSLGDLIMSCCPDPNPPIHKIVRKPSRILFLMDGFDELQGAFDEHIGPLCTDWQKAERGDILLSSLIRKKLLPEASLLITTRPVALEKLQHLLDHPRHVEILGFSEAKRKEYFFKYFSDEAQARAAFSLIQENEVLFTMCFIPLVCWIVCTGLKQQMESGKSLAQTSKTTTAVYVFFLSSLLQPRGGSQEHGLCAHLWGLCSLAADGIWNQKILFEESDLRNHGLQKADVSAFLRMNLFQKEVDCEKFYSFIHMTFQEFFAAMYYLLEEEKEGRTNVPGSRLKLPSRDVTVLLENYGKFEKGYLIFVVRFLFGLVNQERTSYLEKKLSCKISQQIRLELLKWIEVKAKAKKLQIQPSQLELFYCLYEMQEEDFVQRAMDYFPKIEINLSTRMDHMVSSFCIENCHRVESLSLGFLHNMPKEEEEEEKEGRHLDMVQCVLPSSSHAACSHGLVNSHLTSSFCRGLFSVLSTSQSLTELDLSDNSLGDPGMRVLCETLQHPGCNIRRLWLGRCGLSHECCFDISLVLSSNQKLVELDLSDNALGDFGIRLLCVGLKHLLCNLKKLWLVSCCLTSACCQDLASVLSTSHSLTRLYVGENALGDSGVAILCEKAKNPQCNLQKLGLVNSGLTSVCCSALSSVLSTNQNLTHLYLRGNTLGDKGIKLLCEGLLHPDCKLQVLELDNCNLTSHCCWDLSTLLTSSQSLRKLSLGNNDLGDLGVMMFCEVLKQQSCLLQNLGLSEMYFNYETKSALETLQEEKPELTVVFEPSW

[4] = target: NACHT, LRR and PYD domains-containing protein 3 (Mus musculus) (UniProt Q8R4B8); assay: Inhibition of NLRP3 inflammasome activation in LPS-primed mouse BMDM cells assessed as reduction in LPS/ATP induced cleaved IL-1beta release in supernatant preincubated for 30 mins followed by LPS addition for 3 hrs prior to ATP addition for 30 mins by Western blot analysis; details: dose 4-10 µM, time 4.0 hrs, DDE = dose-dependent effect
[5] = target: NACHT, LRR and PYD domains-containing protein 3 (Mus musculus) (UniProt Q8R4B8); assay: Inhibition of NLRP3 inflammasome activation in LPS-primed mouse BMDM cells assessed as reduction in LPS/ATP induced cleaved IL-1beta release in supernatant at 2 uM preincubated for 30 mins followed by LPS addition for 3 hrs prior to ATP addition for 30 mins by Western blot analysis; details: time 4.0 hrs

Compound | inhibition [1] [%] | inhibition [2] | inhibition [3] | inhibition [4] | inhibition [5]
COc1ccc(Cl)cc1CN1C(=O)/C(=C/c2ccc(S(N)(=O)=O)cc2)SC1=S | 60 | Dde | Active | Dde | 
CCCCOc1ccc(Cl)cc1CN1C(=O)/C(=C/c2ccc(S(N)(=O)=O)cc2)SC1=S |  |  |  |  | Active
COc1ccccc1CN1C(=O)/C(=C/c2ccc(S(N)(=O)=O)cc2)SC1=S |  |  |  |  | Active
NS(=O)(=O)c1ccc(/C=C2\SC(=S)N(Cc3cccc(Cl)c3)C2=O)cc1 |  |  |  |  | Active
COc1ccc(Cl)c(CN2C(=O)/C(=C/c3ccc(S(N)(=O)=O)cc3)SC2=S)c1 | 60 | Dde | Active | Dde | 
